Results from US4442044A, “Process for preparing monoesters and diesters of N-alkyl substituted amino methyl phosphonic acid” (priority 1983, dated 1984).

How the values were obtained:
Assay in all cases: post-emergent herbicidal activity, greenhouse
Format in all cases: in vivo
Morningglory = conditions: 4 WAT
Method in brief: (§1)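 Post-emergence foliar spray at tabulated application rates, using aliquots of a 1.0% stock in acetone, THF or water plus ~0.4% emulsifier, applied to 2–3-week-old greenhouse plants. Plant injury was rated relative to controls roughly two and four weeks after treatment.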

Panicum Spp = conditions: Table II, 4 WAT
Method in brief: as §1

Yellow Nutsedge = conditions: Table I, 4 WAT
Method in brief: as §1

Wheat = conditions: Table II, 4 WAT
Method in brief: as §1

Soybean = conditions: Table II, 4 WAT
Method in brief: as §1

Sugar Beet = conditions: Table II, 4 WAT
Method in brief: as §1

Cocklebur = conditions: 4 WAT
Method in brief: as §1

Rice = conditions: Table II, 4 WAT
Method in brief: as §1

Barnyardgrass = conditions: 4 WAT
Method in brief: as §1

Hemp Sesbania = conditions: Table II, 4 WAT
Method in brief: as §1

Canada Thistle = conditions: Table I, 4 WAT
Method in brief: as §1

Velvetleaf = conditions: 4 WAT
Method in brief: as §1

Downy Brome = conditions: 4 WAT
Method in brief: as §1

Quackgrass = conditions: Table I, 4 WAT
Method in brief: as §1

Johnsongrass = conditions: Table I, 4 WAT
Method in brief: as §1

Wild Buckwheat = conditions: Table II, 4 WAT
Method in brief: as §1

Lambsquarters = conditions: 4 WAT
Method in brief: as §1

Crabgrass = conditions: Table II, 4 WAT
Method in brief: as §1

Smartweed = conditions: 4 WAT
Method in brief: as §1

Sorghum = conditions: Table II, 4 WAT
Method in brief: as §1

CCOC(=O)CNCP(=O)(OC(C)C#N)OC(C)C#N (stereo not shown) [Example 1, glycine, N-[[bis(1-cyanoethoxy)phosphinyl]methyl], ethyl ester]
post-emergent herbicidal activity index (Morningglory; Table I, 5.6 kg/h): 3 (75-99% control) | post-emergent herbicidal activity index (Morningglory; Table I, 11.2 kg/h): 3 (75-99% control) | post-emergent herbicidal activity index (Morningglory; Table II, 0.28 kg/h): 1 (25-49% control) | post-emergent herbicidal activity index (Morningglory; Table II, 1.12 kg/h): 2 (50-74% control) | post-emergent herbicidal activity index (Morningglory; Table II, 5.6 kg/h): 3 (75-99% control) | post-emergent herbicidal activity index (Panicum Spp; 0.28 kg/h): 2 (50-74% control) | post-emergent herbicidal activity index (Panicum Spp; 1.12 kg/h): 4 (100% control) | post-emergent herbicidal activity index (Panicum Spp; 5.6 kg/h): 4 (100% control) | post-emergent herbicidal activity index (Yellow Nutsedge; 5.6 kg/h): 2 (50-74% control) | post-emergent herbicidal activity index (Yellow Nutsedge; 11.2 kg/h): 3 (75-99% control) | post-emergent herbicidal activity index (Wheat; 0.28 kg/h): 1 (25-49% control) | post-emergent herbicidal activity index (Wheat; 1.12 kg/h): 2 (50-74% control) | post-emergent herbicidal activity index (Wheat; 5.6 kg/h): 4 (100% control) | post-emergent herbicidal activity index (Soybean; 0.28 kg/h): 0 (0-24% control) | post-emergent herbicidal activity index (Soybean; 1.12 kg/h): 2 (50-74% control) | post-emergent herbicidal activity index (Soybean; 5.6 kg/h): 4 (100% control) | post-emergent herbicidal activity index (Sugar Beet; 0.28 kg/h): 2 (50-74% control) | post-emergent herbicidal activity index (Sugar Beet; 1.12 kg/h): 4 (100% control) | post-emergent herbicidal activity index (Sugar Beet; 5.6 kg/h): 4 (100% control) | post-emergent herbicidal activity index (Cocklebur; Table I, 5.6 kg/h): 3 (75-99% control) | post-emergent herbicidal activity index (Cocklebur; Table I, 11.2 kg/h): 3 (75-99% control) | post-emergent herbicidal activity index (Cocklebur; Table II, 0.28 kg/h): 1 (25-49% control) | post-emergent herbicidal activity index (Cocklebur; Table II, 1.12 kg/h): 2 (50-74% control) | post-emergent herbicidal activity index (Cocklebur; Table II, 5.6 kg/h): 3 (75-99% control) | post-emergent herbicidal activity index (Rice; 0.28 kg/h): 0 (0-24% control) | post-emergent herbicidal activity index (Rice; 1.12 kg/h): 1 (25-49% control) | post-emergent herbicidal activity index (Rice; 5.6 kg/h): 4 (100% control) | post-emergent herbicidal activity index (Barnyardgrass; Table I, 5.6 kg/h): 4 (100% control) | post-emergent herbicidal activity index (Barnyardgrass; Table I, 11.2 kg/h): 4 (100% control) | post-emergent herbicidal activity index (Barnyardgrass; Table II, 0.28 kg/h): 2 (50-74% control) | post-emergent herbicidal activity index (Barnyardgrass; Table II, 1.12 kg/h): 3 (75-99% control) | post-emergent herbicidal activity index (Barnyardgrass; Table II, 5.6 kg/h): 4 (100% control) | post-emergent herbicidal activity index (Hemp Sesbania; 0.28 kg/h): 0 (0-24% control) | post-emergent herbicidal activity index (Hemp Sesbania; 1.12 kg/h): 5 | post-emergent herbicidal activity index (Hemp Sesbania; 5.6 kg/h): 2 (50-74% control) | post-emergent herbicidal activity index (Canada Thistle; 5.6 kg/h): 4 (100% control) | post-emergent herbicidal activity index (Canada Thistle; 11.2 kg/h): 3 (75-99% control) | post-emergent herbicidal activity index (Velvetleaf; Table I, 5.6 kg/h): 4 (100% control) | post-emergent herbicidal activity index (Velvetleaf; Table I, 11.2 kg/h): 3 (75-99% control) | post-emergent herbicidal activity index (Velvetleaf; Table II, 0.28 kg/h): 0 (0-24% control) | post-emergent herbicidal activity index (Velvetleaf; Table II, 1.12 kg/h): 2 (50-74% control) | post-emergent herbicidal activity index (Velvetleaf; Table II, 5.6 kg/h): 4 (100% control) | post-emergent herbicidal activity index (Downy Brome; Table I, 5.6 kg/h): 3 (75-99% control) | post-emergent herbicidal activity index (Downy Brome; Table I, 11.2 kg/h): 2 (50-74% control) | post-emergent herbicidal activity index (Downy Brome; Table II, 0.28 kg/h): 0 (0-24% control) | post-emergent herbicidal activity index (Downy Brome; Table II, 1.12 kg/h): 2 (50-74% control) | post-emergent herbicidal activity index (Downy Brome; Table II, 5.6 kg/h): 4 (100% control) | post-emergent herbicidal activity index (Quackgrass; 5.6 kg/h): 3 (75-99% control) | post-emergent herbicidal activity index (Quackgrass; 11.2 kg/h): 2 (50-74% control) | post-emergent herbicidal activity index (Johnsongrass; 5.6 kg/h): 3 (75-99% control) | post-emergent herbicidal activity index (Johnsongrass; 11.2 kg/h): 4 (100% control) | post-emergent herbicidal activity index (Wild Buckwheat; 0.28 kg/h): 0 (0-24% control) | post-emergent herbicidal activity index (Wild Buckwheat; 1.12 kg/h): 2 (50-74% control) | post-emergent herbicidal activity index (Wild Buckwheat; 5.6 kg/h): 4 (100% control) | post-emergent herbicidal activity index (Lambsquarters; Table I, 5.6 kg/h): 3 (75-99% control) | post-emergent herbicidal activity index (Lambsquarters; Table I, 11.2 kg/h): 1 (25-49% control) | post-emergent herbicidal activity index (Lambsquarters; Table II, 0.28 kg/h): 0 (0-24% control) | post-emergent herbicidal activity index (Lambsquarters; Table II, 1.12 kg/h): 3 (75-99% control) | post-emergent herbicidal activity index (Lambsquarters; Table II, 5.6 kg/h): 3 (75-99% control) | post-emergent herbicidal activity index (Crabgrass; 0.28 kg/h): 1 (25-49% control) | post-emergent herbicidal activity index (Crabgrass; 1.12 kg/h): 3 (75-99% control) | post-emergent herbicidal activity index (Crabgrass; 5.6 kg/h): 4 (100% control) | post-emergent herbicidal activity index (Smartweed; Table I, 5.6 kg/h): 3 (75-99% control) | post-emergent herbicidal activity index (Smartweed; Table I, 11.2 kg/h): 4 (100% control) | post-emergent herbicidal activity index (Smartweed; Table II, 0.28 kg/h): 0 (0-24% control) | post-emergent herbicidal activity index (Smartweed; Table II, 1.12 kg/h): 3 (75-99% control) | post-emergent herbicidal activity index (Smartweed; Table II, 5.6 kg/h): 4 (100% control) | post-emergent herbicidal activity index (Sorghum; 0.28 kg/h): 1 (25-49% control) | post-emergent herbicidal activity index (Sorghum; 1.12 kg/h): 3 (75-99% control) | post-emergent herbicidal activity index (Sorghum; 5.6 kg/h): 4 (100% control)
